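Cells were grown in 96-well plates and exposed to each compound for 48 hours at five concentrations; endpoints were interpolated linearly between bracketing concentrations, or set to the highest concentration if not reached. Here, GI50 denotes the concentration required for 50% inhibition of growth. TGI is the concentration that stops growth completely.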
How the values were obtained:
Test in all cases: NCI-60 cell line screen, 48 h
SF-295 CNS = tested on: SF-295 CNS
SF-539 CNS = tested on: SF-539 CNS
SNB-19 CNS = tested on: SNB-19 CNS
SW-620 colon = tested on: SW-620 colon
HL-60(TB) leukemia = tested on: HL-60(TB) leukemia
NCI-H226 lung = tested on: NCI-H226 lung
KM12 colon = tested on: KM12 colon
MALME-3M melanoma = tested on: MALME-3M melanoma
NCI/ADR-RES ovarian = tested on: NCI/ADR-RES ovarian
IGROV1 ovarian = tested on: IGROV1 ovarian
UACC-62 melanoma = tested on: UACC-62 melanoma
COLO 205 colon = tested on: COLO 205 colon
DU-145 prostate = tested on: DU-145 prostate
A498 renal = tested on: A498 renal
NCI-H522 lung = tested on: NCI-H522 lung
HOP-92 NSCLC = tested on: HOP-92 NSCLC
M14 melanoma = tested on: M14 melanoma
OVCAR-5 ovarian = tested on: OVCAR-5 ovarian
LOX IMVI melanoma = tested on: LOX IMVI melanoma
OVCAR-8 ovarian = tested on: OVCAR-8 ovarian
RPMI-8226 leukemia = tested on: RPMI-8226 leukemia
UO-31 renal = tested on: UO-31 renal
786-0 renal = tested on: 786-0 renal
RXF 393 renal = tested on: RXF 393 renal
SK-MEL-5 melanoma = tested on: SK-MEL-5 melanoma
NCI-H460 lung = tested on: NCI-H460 lung
OVCAR-4 ovarian = tested on: OVCAR-4 ovarian
CCRF-CEM leukemia = tested on: CCRF-CEM leukemia
BT-549 breast = tested on: BT-549 breast
SK-MEL-2 melanoma = tested on: SK-MEL-2 melanoma
SK-OV-3 ovarian = tested on: SK-OV-3 ovarian
SK-MEL-28 melanoma = tested on: SK-MEL-28 melanoma
HCT-15 colon = tested on: HCT-15 colon
HCC-2998 colon = tested on: HCC-2998 colon
PC-3 prostate = tested on: PC-3 prostate
HOP-62 NSCLC = tested on: HOP-62 NSCLC
K-562 leukemia = tested on: K-562 leukemia
HT29 colon = tested on: HT29 colon
UACC-257 melanoma = tested on: UACC-257 melanoma
A549 NSCLC = tested on: A549 NSCLC
MDA-MB-231 breast = tested on: MDA-MB-231 breast
TK-10 renal = tested on: TK-10 renal
OVCAR-3 ovarian = tested on: OVCAR-3 ovarian
SNB-75 CNS = tested on: SNB-75 CNS
MCF7 breast = tested on: MCF7 breast
CAKI-1 renal = tested on: CAKI-1 renal
EKVX NSCLC = tested on: EKVX NSCLC
U251 CNS = tested on: U251 CNS
ACHN renal = tested on: ACHN renal
SF-268 CNS = tested on: SF-268 CNS
HS 578T breast = tested on: HS 578T breast
T-47D breast = tested on: T-47D breast
MDA-MB-435 = tested on: MDA-MB-435
SN12C renal = tested on: SN12C renal
HCT-116 colon = tested on: HCT-116 colon
MOLT-4 leukemia = tested on: MOLT-4 leukemia
SR leukemia = tested on: SR leukemia

For `C[C@@H](Nc1c(C#N)cnc2ccc(-c3cnc(N)nc3)cc12)c1ccccc1`, the GI50 (SF-295 CNS) was 1380 nM, the TGI (SF-295 CNS) was 7450 nM and the GI50 (SF-539 CNS) was 2210 nM. The TGI (SF-539 CNS) was 12800 nM, the GI50 (SNB-19 CNS) was 2230 nM and the TGI (SNB-19 CNS) was 60600 nM. It also gave a GI50 (SW-620 colon) of 3730 nM, a TGI (SW-620 colon) of over 100000 nM and a GI50 (HL-60(TB) leukemia) of 2070 nM. For the same compound, the TGI (HL-60(TB) leukemia) was over 100000 nM, the GI50 (NCI-H226 lung) was 1810 nM and the TGI (NCI-H226 lung) was 12700 nM. For the same compound, the GI50 (KM12 colon) was 2670 nM, the TGI (KM12 colon) was over 100000 nM and the GI50 (MALME-3M melanoma) was 1590 nM. The TGI (MALME-3M melanoma) was 7830 nM, the GI50 (NCI/ADR-RES ovarian) was 2870 nM and the TGI (NCI/ADR-RES ovarian) was 18100 nM. For the same compound, the GI50 (IGROV1 ovarian) was 454 nM, the TGI (IGROV1 ovarian) was 3870 nM and the GI50 (UACC-62 melanoma) was 2240 nM. For the same compound, the TGI (UACC-62 melanoma) was 10000 nM, the GI50 (COLO 205 colon) was 3060 nM and the TGI (COLO 205 colon) was 13400 nM. It also gave a GI50 (DU-145 prostate) of 1910 nM, a TGI (DU-145 prostate) of over 100000 nM and a GI50 (A498 renal) of 301 nM. It also gave a TGI (A498 renal) of 3480 nM, a GI50 (NCI-H522 lung) of 1730 nM and a TGI (NCI-H522 lung) of 10600 nM. The GI50 (HOP-92 NSCLC) was 185 nM, the TGI (HOP-92 NSCLC) was 1110 nM and the GI50 (M14 melanoma) was 2800 nM. The TGI (M14 melanoma) was 16700 nM, the GI50 (OVCAR-5 ovarian) was 1620 nM and the TGI (OVCAR-5 ovarian) was 83800 nM. For the same compound, the GI50 (LOX IMVI melanoma) was 1640 nM, the TGI (LOX IMVI melanoma) was 11000 nM and the GI50 (OVCAR-8 ovarian) was 2500 nM. It also gave a TGI (OVCAR-8 ovarian) of 24000 nM, a GI50 (RPMI-8226 leukemia) of 588 nM and a TGI (RPMI-8226 leukemia) of 4920 nM. The GI50 (UO-31 renal) was 310 nM, the TGI (UO-31 renal) was 8900 nM and the GI50 (786-0 renal) was 1600 nM. It also gave a TGI (786-0 renal) of 36400 nM, a GI50 (RXF 393 renal) of 886 nM and a TGI (RXF 393 renal) of 4590 nM. For the same compound, the GI50 (SK-MEL-5 melanoma) was 1840 nM, the TGI (SK-MEL-5 melanoma) was 3990 nM and the GI50 (NCI-H460 lung) was 1730 nM. The TGI (NCI-H460 lung) was 44600 nM, the GI50 (OVCAR-4 ovarian) was 1220 nM and the TGI (OVCAR-4 ovarian) was 7870 nM. For the same compound, the GI50 (CCRF-CEM leukemia) was 1890 nM, the TGI (CCRF-CEM leukemia) was over 100000 nM and the GI50 (BT-549 breast) was 1050 nM. The TGI (BT-549 breast) was 6340 nM, the GI50 (SK-MEL-2 melanoma) was 1760 nM and the TGI (SK-MEL-2 melanoma) was 5540 nM. The GI50 (SK-OV-3 ovarian) was 2160 nM, the TGI (SK-OV-3 ovarian) was 7380 nM and the GI50 (SK-MEL-28 melanoma) was 2950 nM. The TGI (SK-MEL-28 melanoma) was 26900 nM, the GI50 (HCT-15 colon) was 1740 nM and the TGI (HCT-15 colon) was 22600 nM. The GI50 (HCC-2998 colon) was 2780 nM, the TGI (HCC-2998 colon) was over 100000 nM and the GI50 (PC-3 prostate) was 1540 nM. For the same compound, the TGI (PC-3 prostate) was 10100 nM, the GI50 (HOP-62 NSCLC) was 1980 nM and the TGI (HOP-62 NSCLC) was 27800 nM. For the same compound, the GI50 (K-562 leukemia) was 2490 nM, the TGI (K-562 leukemia) was over 100000 nM and the GI50 (HT29 colon) was 2430 nM. For the same compound, the TGI (HT29 colon) was over 100000 nM, the GI50 (UACC-257 melanoma) was 2790 nM and the TGI (UACC-257 melanoma) was 17100 nM. The GI50 (A549 NSCLC) was 1550 nM, the TGI (A549 NSCLC) was 13700 nM and the GI50 (MDA-MB-231 breast) was 1820 nM. The TGI (MDA-MB-231 breast) was 50400 nM, the GI50 (TK-10 renal) was 289 nM and the TGI (TK-10 renal) was 3450 nM. For the same compound, the GI50 (OVCAR-3 ovarian) was 2740 nM, the TGI (OVCAR-3 ovarian) was over 100000 nM and the GI50 (SNB-75 CNS) was 1580 nM. It also gave a TGI (SNB-75 CNS) of 37500 nM, a GI50 (MCF7 breast) of 1150 nM and a TGI (MCF7 breast) of 17300 nM. The GI50 (CAKI-1 renal) was 781 nM, the TGI (CAKI-1 renal) was 11600 nM and the GI50 (EKVX NSCLC) was 552 nM. It also gave a TGI (EKVX NSCLC) of 5000 nM, a GI50 (U251 CNS) of 2130 nM and a TGI (U251 CNS) of 77500 nM. It also gave a GI50 (ACHN renal) of 942 nM, a TGI (ACHN renal) of 40900 nM and a GI50 (SF-268 CNS) of 3220 nM. It also gave a TGI (SF-268 CNS) of over 100000 nM, a GI50 (HS 578T breast) of 1190 nM and a TGI (HS 578T breast) of 6820 nM. The GI50 (T-47D breast) was 907 nM, the TGI (T-47D breast) was 7860 nM and the GI50 (MDA-MB-435) was 2610 nM. The TGI (MDA-MB-435) was over 100000 nM, the GI50 (SN12C renal) was 1140 nM and the TGI (SN12C renal) was 24200 nM. The GI50 (HCT-116 colon) was 2460 nM, the TGI (HCT-116 colon) was 11100 nM and the GI50 (MOLT-4 leukemia) was 1580 nM. For the same compound, the TGI (MOLT-4 leukemia) was over 100000 nM, the GI50 (SR leukemia) was 2380 nM and the TGI (SR leukemia) was over 100000 nM.

From PubChem BioAssay (NCI)
